One test deals with P. aeruginosa FRD1. The test is classed as cell-based, Pseudomonas aeruginosa. The note with it: FRD1, 2 h. The method, then: (§1) The MIC assays were performed as previously described ([43]). Briefly, peptides were plated in a 2-fold dilution series (50 μL/well) of Mueller-Hinton broth (MHB) in Costar 96-well cell culture plates (Corning, NY, USA). Three repeats were set for each concentration. E. coli ATCC 25922, A. hydrophila ATCC 7966, P. aeruginosa PAO1, P. aeruginosa FRD1, S. aureus ATCC 25923, S. agalactiae ATCC 13813, S. pneumoniae ATCC 49619, methicillin-resistant S. aureus ATCC 43300, and methicillin-resistant S. aureus USA300 were cultured in Luria-Bertani (LB) medium, while K. pneumoniae CMCC46117 was cultured in tryptic soy broth (TSB) medium. Incubation was done at 37°C and 150 × g for 12 h. Bacteria were transferred to fresh MHB at a ratio of 1% (vol/vol) and incubated to reach a logarithmic growth phase. Then, 50 μL of a bacterial suspension at 4 × 10^6 CFU/mL was added to each well. […]

Test [1] deals with Aeromonas hydrophila ATCC 7966. The test is classed as cell-based. The following applies: ATCC 7966, 2 h. The method, then:
as §1

Test [2] relates to Escherichia coli ATCC 25922. The test is classed as cell-based. The note with it: ATCC 25922, 2 h. The method, then:
as §1

The subject of test [3] is Klebsiella pneumoniae CMCC46117. The test is classed as cell-based. The following applies: CMCC46117, 2 h. The method, then:
as §1

Test [4] deals with Pseudomonas aeruginosa PAO1. The test is classed as cell-based. The following applies: PAO1, 2 h. The method, then: as §1
Test [5] has as its system Staphylococcus aureus ATCC 25923. The test is classed as cell-based. The note with it: ATCC 25923, 2 h. The method, then: as §1
In test [6] the test system is Streptococcus agalactiae ATCC 13813. The test is classed as cell-based. The note with it: ATCC 13813, 2 h. The method, then: as §1
In test [7] the test system is Streptococcus pneumoniae ATCC 49619. The test is classed as cell-based. The note with it: ATCC 49619, 2 h. The method, then: as §1
The subject of test [8] is Methicillin-resistant S. aureus ATCC 43300. The test is classed as cell-based, Staphylococcus aureus. The following applies: ATCC 43300, 2 h. The method, then: as §1
The test system of test [9] is Methicillin-resistant S. aureus USA300. The test is classed as cell-based, Staphylococcus aureus. The following applies: USA300, 2 h. The method, then:
as §1

The next test concerns E. coli ATCC 25922. In words: SYTOX green membrane permeability assay. The test is classed as cell-based, Escherichia coli. The following applies: E. coli ATCC 25922, 5 μM SYTOX green, read every 1 min. The method, then: The SYTOX green staining assay was performed to assess peptide-associated membrane damage ([47], [52]). E. coli ATCC 25922 and S. aureus ATCC 25923 cells in the mid-logarithmic phase were collected, washed thrice, and resuspended (5 × 10^7 CFU/mL) in buffer B (10 mM Tris-HCl, pH 7.4, at 25°C). The bacterial suspensions were mixed with 5 μM SYTOX green and incubated for 15 min at room temperature in the dark. Then, the mixtures were added to black, clear-bottom 96-well plates at a density of 100 μL/well. After peptide addition, SYTOX green uptake was monitored using an EnSpire multimode plate reader (PerkinElmer, Singapore) with an excitation wavelength of 485 nm and an emission wavelength of 520 nm. Each measurement interval was 1 min, totaling 30 to 60 times. Melittin was used as the positive control, while bovine serum albumin (BSA) was the negative control.

For test [10], the system named is Staphylococcus aureus USA300. The note with it: S. aureus USA300. The method, then: The MIC assays were performed as previously described ([43]). Briefly, peptides were plated in a 2-fold dilution series (50 μL/well) of Mueller-Hinton broth (MHB) in Costar 96-well cell culture plates (Corning, NY, USA). Three repeats were set for each concentration. E. coli ATCC 25922, A. hydrophila ATCC 7966, P. aeruginosa PAO1, P. aeruginosa FRD1, S. aureus ATCC 25923, S. agalactiae ATCC 13813, S. pneumoniae ATCC 49619, methicillin-resistant S. aureus ATCC 43300, and methicillin-resistant S. aureus USA300 were cultured in Luria-Bertani (LB) medium, while K. pneumoniae CMCC46117 was cultured in tryptic soy broth (TSB) medium. Incubation was done at 37°C and 150 × g for 12 h. Bacteria were transferred to fresh MHB at a ratio of 1% (vol/vol) and incubated to reach a logarithmic growth phase. Then, 50 μL of a bacterial suspension at 4 × 10^6 CFU/mL was added to each well. After incubation at 37°C for 22 ± 2 h, turbidity was measured using an EnSpire multimode plate reader (PerkinElmer, Singapore) at 595 nm.

In brackets after ≈: the same amount, converted by molar mass. Residues, ends and D or L forms follow the SMILES beside them.

The values below come from paper PMC9241943, “LcCCL28-25, Derived from Piscine Chemokine, Exhibits Antimicrobial Activity against Gram-Negative and Gram-Positive Bacteria In Vitro and In Vivo” (Microbiology Spectrum, 2022).

As to `CC[C@H](C)[C@H](NC(=O)[C@H](C)NC(=O)[C@H](CCCCN)NC(=O)[C@H](CCSC)NC(=O)[C@H](CCCCN)NC(=O)[C@H](CC(C)C)NC(=O)[C@@H]1CCCN1C(=O)[C@H](C)N)C(=O)N[C@@H](CC(C)C)C(=O)N[C@@H](CCC(=O)O)C(=O)N[C@H](C(=O)N[C@H](C(=O)N[C@@H](Cc1c[nH]cn1)C(=O)N[C@@H](CCCNC(=N)N)C(=O)N[C@@H](CCCNC(=N)N)C(=O)N[C@@H](CCSC)C(=O)N[C@@H](CCCCN)C(=O)N[C@@H](CCC(N)=O)C(=O)N[C@@H](CC(N)=O)C(=O)N[C@@H](CCCCN)C(=O)N[C@@H](CCSC)C(=O)N[C@@H](CCCCN)C(=O)N[C@@H](C)C(=O)N[C@@H](C)C(=O)N[C@@H](Cc1ccccc1)C(=O)O)C(C)C)[C@@H](C)CC` [smCCL27b-25] (H-APLKMKAILEIVHRRMKQNKMKAAF-OH; N-terminus and C-terminus assumed), the MIC against P. aeruginosa FRD1 is 25.00 µg/mL (≈ 8.46 µM); in test [1] it was above 50.00 µg/mL; in test [2], 50.00 µg/mL (≈ 16.9 µM); in test [3], above 50.00 µg/mL; in [4] it was 50.00 µg/mL (≈ 16.9 µM); in [5] it was 25.00 µg/mL (≈ 8.46 µM). The MIC in [6] was 25.00 µg/mL (≈ 8.46 µM); in test [7], 25.00 µg/mL (≈ 8.46 µM); in [8], above 50.00 µg/mL; in [9], 25.00 µg/mL (≈ 8.46 µM). Besides, the “SYTOX green fluorescence intensity” value in the test with E. coli ATCC 25922 was “increased rapidly within 20 min”.

In the case of `CC[C@H](C)[C@H](NC(=O)[C@H](CCCCN)NC(=O)[C@H](CCSC)NC(=O)[C@H](C)NC(=O)[C@H](CC(C)C)NC(=O)[C@H](Cc1c[nH]cn1)NC(=O)[C@H](CCCNC(=N)N)NC(=O)[C@H](CCCCN)NC(=O)[C@H](CCCCN)NC(=O)[C@H](CCCCN)NC(=O)[C@H](CCSC)NC(=O)[C@H](CC(C)C)NC(=O)[C@H](CC(C)C)NC(=O)[C@H](CC(=O)O)NC(=O)[C@H](CC(C)C)NC(=O)[C@H](Cc1c[nH]cn1)NC(=O)[C@H](CCCCN)NC(=O)[C@H](CCCCN)NC(=O)[C@@H](NC(=O)[C@H](CCCNC(=N)N)NC(=O)[C@@H]1CCCN1C(=O)[C@H](Cc1c[nH]cn1)NC(=O)[C@H](C)N)[C@@H](C)CC)C(=O)N[C@@H](C)C(=O)N[C@@H](C)C(=O)N1CCC[C@H]1C(=O)O` [chCCL27a-26] (H-AHPRIKKHLDLLMKKKRHLAMKIAAP-OH; N-terminus and C-terminus assumed), the minimum inhibitory concentration (MIC) is 25.00 µg/mL (≈ 8.21 µM) with P. aeruginosa FRD1; above 50.00 µg/mL in test [1]; 25.00 µg/mL (≈ 8.21 µM) in [2]; above 50.00 µg/mL in [3]; 25.00 µg/mL (≈ 8.21 µM) in [4]; 12.50 µg/mL (≈ 4.1 µM) in [5]. Also, the MIC in [6], in test [7], in [8] and in test [9] was 25.00 µg/mL (≈ 8.21 µM) each time. Besides, the “SYTOX green fluorescence intensity” value in the test on E. coli ATCC 25922 is on record as “fluorescence trends similar to the trends in E. coli cells treated with lcCCL28-25”.

Turning to `CC[C@H](C)[C@H](NC(=O)[C@H](CC(=O)O)NC(=O)[C@H](CCCCN)NC(=O)[C@H](Cc1ccccc1)NC(=O)[C@@H](NC(=O)[C@@H](NC(=O)[C@H](CCC(N)=O)NC(=O)[C@H](CC(=O)O)NC(=O)[C@@H](N)C(C)C)[C@@H](C)O)C(C)C)C(=O)N[C@@H](Cc1c[nH]c2ccccc12)C(=O)N[C@@H](Cc1c[nH]c2ccccc12)C(=O)N[C@@H](CCCNC(=N)N)C(=O)N[C@@H](CCSC)C(=O)N[C@@H](CCCCN)C(=O)N[C@@H](CCC(N)=O)C(=O)N[C@@H](Cc1c[nH]c2ccccc12)C(=O)N[C@@H](CCCCN)C(=O)N[C@@H](CCC(N)=O)C(=O)N[C@@H](CCCNC(=N)N)C(=O)N[C@H](C(=O)N[C@@H](CCCCN)C(=O)N[C@@H](CCCCN)C(=O)N[C@@H](CCCNC(=N)N)C(=O)N[C@@H](C)C(=O)N[C@@H](C)C(=O)N[C@@H](CCCCN)C(=O)N[C@@H](Cc1ccc(O)cc1)C(=O)N[C@@H](CC(N)=O)C(=O)N[C@H](C(=O)O)C(C)C)C(C)C` [trCCL28-29] (H-VDQTVFKDIWWRMKQWKQRVKKRAAKYNV-OH; N-terminus and C-terminus assumed), the MIC against P. aeruginosa FRD1 was determined as 25.00 µg/mL (≈ 6.69 µM); in test [1] it was 25.00 µg/mL (≈ 6.69 µM); in test [2], 12.50 µg/mL (≈ 3.34 µM); in test [3], 25.00 µg/mL (≈ 6.69 µM); in test [4], 25.00 µg/mL (≈ 6.69 µM); in test [5], 12.50 µg/mL (≈ 3.34 µM). Further, the MIC in [6] worked out at 12.50 µg/mL (≈ 3.34 µM); in [7], 25.00 µg/mL (≈ 6.69 µM); in test [8], 12.50 µg/mL (≈ 3.34 µM); in [9] it was 12.5 µg/mL (≈ 3.34 µM). For the same compound, the “SYTOX green fluorescence intensity” value in the test on E. coli ATCC 25922 is given as “increased rapidly within 20 min”.

With `CC[C@H](C)[C@H](NC(=O)CN)C(=O)NCC(=O)N[C@@H](C)C(=O)N[C@H](C(=O)N[C@@H](CC(C)C)C(=O)N[C@@H](CCCCN)C(=O)N[C@H](C(=O)N[C@@H](CC(C)C)C(=O)N[C@H](C(=O)N[C@H](C(=O)NCC(=O)N[C@@H](CC(C)C)C(=O)N1CCC[C@H]1C(=O)N[C@@H](C)C(=O)N[C@@H](CC(C)C)C(=O)N[C@H](C(=O)N[C@@H](CO)C(=O)N[C@@H](Cc1c[nH]c2ccccc12)C(=O)N[C@H](C(=O)N[C@@H](CCCCN)C(=O)N[C@@H](CCCNC(=N)N)C(=O)N[C@@H](CCCCN)C(=O)N[C@@H](CCCNC(=N)N)C(=O)N[C@@H](CCC(N)=O)C(=O)N[C@@H](CCC(N)=O)C(N)=O)[C@@H](C)CC)[C@@H](C)CC)[C@@H](C)O)[C@@H](C)O)C(C)C)C(C)C` [Melittin], the “MIC in 6 μM NH4Cl” value in test [10] (6 μM NH4Cl) came to 6.25 µg/mL (≈ 2.2 µM). Further, the “MIC in 1 mM MgCl2” value in test [10] (1 mM MgCl2) came out at 6.25 µg/mL (≈ 2.2 µM). Further, in [10] (2.5 mM CaCl2), the “MIC in 2.5 mM CaCl2” value turned out to be 6.25 µg/mL (≈ 2.2 µM). In addition, the “MIC in 4.5 mM KCl” value in [10] (4.5 mM KCl) turned out to be 6.25 µg/mL (≈ 2.2 µM). Moreover, the “MIC in 150 mM NaCl” value in test [10] (150 mM NaCl) is 6.25 µg/mL (≈ 2.2 µM). For the same compound, in test [10] (10% mouse serum), the “MIC in MS at concn 10%” value was determined as 25.00 µg/mL (≈ 8.78 µM). Moreover, the “MIC in MS at concn 20%” value in [10] (20% mouse serum) is 50.00 µg/mL (≈ 17.6 µM). For the same compound, in [10] (40% mouse serum), the “MIC in MS at concn 40%” value was 200.00 µg/mL (≈ 70.3 µM). For the same compound, in test [10] (control, bacteria treated with peptide only), the “MIC in Control” value was 6.25 µg/mL (≈ 2.2 µM).
